PubChem BioAssay (NCI)
Where “and” joins values, the source holds several entries; their conditions need not be identical. Equal entries are not always repeated.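 Five concentrations, 48 hours, 96-well plates. At the GI50, growth is halved. TGI is the concentration that stops growth completely.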

What was measured:
Test in all cases: NCI tumour cell line growth inhibition, 48 h
A498 renal = tested on: A498 renal
DMS 273 small cell lung = tested on: DMS 273 small cell lung
HCT-15 colon = tested on: HCT-15 colon
HOP-62 NSCLC = tested on: HOP-62 NSCLC
RPMI-8226 leukemia = tested on: RPMI-8226 leukemia
SK-MEL-2 melanoma = tested on: SK-MEL-2 melanoma
SN12C renal = tested on: SN12C renal
SNB-78 CNS = tested on: SNB-78 CNS
U251 CNS = tested on: U251 CNS
SK-MEL-28 melanoma = tested on: SK-MEL-28 melanoma

SMILES	TGI (A498 renal) [µM]	TGI (DMS 273 small cell lung) [µM]	TGI (HCT-15 colon) [µM]	TGI (HOP-62 NSCLC) [µM]	TGI (RPMI-8226 leukemia) [µM]	TGI (SK-MEL-2 melanoma)	TGI (SN12C renal) [µM]	TGI (SNB-78 CNS) [µM]	TGI (U251 CNS) [µM]	TGI (SK-MEL-28 melanoma) [µM]	GI50 (A498 renal) [µM]	GI50 (HCT-15 colon) [µM]	GI50 (HOP-62 NSCLC) [µM]	GI50 (RPMI-8226 leukemia) [µM]	GI50 (SK-MEL-2 melanoma)	GI50 (SK-MEL-28 melanoma) [µM]	GI50 (SN12C renal) [µM]	GI50 (U251 CNS) [µM]
O=C(O)c1ccc([N+](=O)[O-])c2c(=O)c3ccccc3[nH]c12	> 100	> 100	> 100	> 100	> 100	> 100 µM	> 100	> 100	> 100	–	–	–	–	–	–	–	–	–
CCCN(CCC)C(=O)Cc1c2n(c3ccccc13)Cc1ccccc1-2	–	> 100	> 100	> 100	> 100	> 100 µM	> 100	> 100	> 100	> 100	–	–	–	–	–	–	–	–
CCCC(=O)N[C@@H](Cc1cc(I)c(O)c(I)c1)C(=O)NCCCNCCCCNCCCNC(=O)[C@@H](N)CCCN=C(N)N	–	> 100	> 100	> 100	> 100	–	> 100	–	> 100	> 100	–	–	–	–	–	–	–	–
COc1ccc2nc(NC(=O)C(=O)CC(=O)c3ccc(Cl)cc3)sc2c1	> 100	> 100	> 100	> 100	–	> 100 µM	> 100	> 100	> 100	> 100	–	–	–	–	–	–	–	–
CC(=S)NNC(=O)c1ccncc1	> 100	> 100	> 100	> 100	–	> 100 µM	> 100	> 100	> 100	> 100	–	–	–	–	–	–	–	–
O=C(c1ccc(NCN2C(=O)CCC2=O)cc1)c1ccc(NCN2C(=O)CCC2=O)cc1	–	> 100	> 100	> 100	43.9	> 100 µM	> 100	> 100	> 100	> 100	–	–	–	–	–	–	–	–
CNS(=O)(=O)NN(C)S(=O)(=O)c1ccc(Br)cc1	> 100	> 100	> 100	> 100	> 100	> 100 µM	> 100	–	> 100	–	–	–	–	–	–	–	–	–
CN1CCN(Cc2ccc(NC(=O)c3[nH]ncc3Nc3ncnc4c3CCC4)cc2)CC1	4.45	–	12.6	11.5	7.39	6.63 µM	20.2	–	12.4	13.1	1.6	1.67	2.69	2.82	2.14 µM	2.61	1.01	1.48
COC[C@H]1OC(=O)c2coc3c2[C@@]1(C)C1=C(C3=O)[C@@H]2CCC(=O)[C@@]2(C)C[C@H]1OC(C)=O	17.3	–	> 100	> 100	> 63.6	16.6 µM	> 100	–	> 100	> 100	0.58	–	–	–	–	–	–	36.8
Cn1c2ccccc2c2nnc(N/N=C/c3ccccn3)nc21	5.05	–	> 100	6.02	16.6	16.9 µM	–	–	14	26.6	0.396	0.374	0.337	0.367	0.953 µM	0.494	0.286	0.357
CCOC(=O)C(Cc1c[nH]c2cc([N+](=O)[O-])ccc12)(NC(C)=O)C(=O)OCC	203	–	> 1000	461	–	97.9 µM and 401 µM	> 1000	–	> 693	> 1000	55.3	> 1000	161	45	36 µM and 168 µM	> 1000	401	104
CC1(C)N=C(N)N=C(N)N1c1cccc(CCCCc2ccc(S(=O)(=O)F)cc2Cl)c1	> 100	–	> 100	20.7	41.9	> 58.5 µM	22.5	–	20.4	22	> 48.2	4.61	5.72	10.8	6.42 µM	8.62	0.834	0.722
CN(C)CCNC(=O)c1cc([N+](=O)[O-])ccn1	> 100	–	41	> 100	> 100	67.5 µM	64	–	92.8	> 100	–	–	–	–	–	–	–	–
CNC1NC(=O)c2ccccc2N1Cc1ccc(F)cc1 (stereo not drawn)	> 100	–	> 100	> 100	> 100	> 100 µM	> 100	–	> 100	> 100	–	–	–	–	–	–	–	–
N#CSCC1CC(O)(c2ccccc2)C(c2ccccc2)C(c2ccc(F)cc2)O1 (stereo not drawn)	45.9	–	10.2	24.3	7.03	7.78 µM	5.27	–	15.1	8.79	18.1	3.05	8.81	1.67	2.69 µM	2.93	2.05	3.66
COc1ccc(/C=C2\CNC/C(=C\c3ccc(OC)cc3)C2=O)cc1	–	> 100	> 100	> 100	> 100	> 100 µM	> 100	> 100	> 100	> 100	–	–	–	–	–	–	–	–
NC1CCC[C@@H](O)[C@H]1O (stereo partly drawn)	> 100	–	> 100	> 100	> 100	> 100 µM	> 100	–	> 100	> 100	–	–	–	–	–	–	–	–
N#CC1(c2nc3ccccc3o2)C(=O)C(=O)N(c2ccc(Cl)c(Cl)c2)C(=O)C1=O	–	> 100	> 100	> 100	> 100	> 100 µM	> 100	> 100	–	> 100	–	–	–	–	–	–	–	–
Cc1ccc(C2=Nc3ccccc3NC(=O)C2)cc1	> 100	> 100	> 100	> 100	–	> 100 µM	> 100	> 100	> 100	> 100	–	–	–	–	–	–	–	–
O=Cc1[nH]c2ccccc2c1Br	33.6	36.3	–	40.6	–	31.2 µM	50.5	44.1	51.1	59.4	–	–	–	–	–	–	–	–
c1ccc2[nH]c(-c3ccc(OCCCCCOc4ccc(-c5nc6ccccc6[nH]5)cc4)cc3)nc2c1	15.8	–	8.11	5.15	6.51	12.7 µM	10.2	–	4.17	0.903	6.51	1.12	2.23	2.21	6.23 µM	0.394	3.27	1.91
COc1ccc(C(=O)c2cc(OC)c(OC)c(OC)c2)cc1O	5.7	–	> 100	> 100	> 64.9	> 100 µM	> 100	–	> 100	> 100	1.4	< 0.01	0.0931	0.0342	0.238 µM	> 80.8	0.0668	0.0425
CCOc1cc2ncc(C#N)c(Nc3ccc(F)c(Cl)c3)c2cc1NC(=O)/C=C/CN(C)C	0.799	–	4.07	> 10	3.33	> 3.21 µM	> 6.03	–	> 4.89	> 4.73	0.145	0.245	1.27	1.04	0.349 µM	1.08	0.173	0.625
Cc1ccc2c(=O)[nH]sc2c1	> 100	–	39.4	36.7	45.1	> 100 µM	22.7	–	27.9	38.4	–	–	–	–	–	–	–	–
Cc1ccc(NS(=O)(=O)c2cc(C)ccc2C)cc1	15.4	–	33.9	> 100	> 100	9.64 µM	19.9	–	23.8	37.3	2.54	2.46	4.49	12.7	3.2 µM	10.7	5.89	4.25
C=CCN=C1N=C(CC(=O)OCC)CS1	> 100	> 100	> 100	> 100	–	> 100 µM	> 100	> 100	> 100	> 100	–	–	–	–	–	–	–	–
O=C(Nc1ccc2oc(=O)c(C(=O)O)cc2c1)Oc1ccccc1	> 100	–	> 100	> 100	> 100	> 100 µM	> 100	–	> 100	> 100	–	–	–	–	–	–	–	–
COc1cccc(/C=C/C(=O)c2cc3c(N)c(C(=O)Nc4cccc(Cl)c4C)sc3nc2C)c1	3.07	–	1.46	4.64	1.57	12.9 µM	3.43	–	2.05	4.7	0.897	0.51	1.1	0.257	1.64 µM	1.26	1.21	0.959
Cc1ccc(S(=O)(=O)OCC23CCC(C4CC42)C2CC23)cc1 (stereo not drawn)	> 100	> 100	> 100	> 100	> 100	–	> 100	–	> 100	> 100	–	–	–	–	–	–	–	–
CN(C)CCCn1c2c3ccccc3ccc2c2oc(=O)c3ccccc3c21	28.6	4.22	4.34	15.4	14	21.1 µM	–	39	9.26	12.3	–	–	–	–	–	–	–	–
